Measurements: US6693102B2, “Pyridine-substituted pyrazolopyridine derivatives” (Bayer Aktiengesellschaft, priority 2000, dated 2004)
pIC50: −log10 of the molar value.

Tested on: rabbit aorta rings
Test: Vasorelaxant action in vitro (phenylephrine-contracted rabbit aorta rings)
Settings: Oryctolagus cuniculus, phenylephrine contraction, 37° C., 0.1% DMSO
Experimental: Rabbits are stunned by a blow to the neck and exsanguinated. The aorta is removed, freed from adherent tissue, divided into rings 1.5 mm wide and individually transferred under a pretension to 5 ml organ baths containing carbogen-aerated Krebs-Henseleit solution of the following composition (mM) at 37° C.: NaCl: 119; KCl: 4.8; CaCl2×2H2O: 1; MgSO4×7H2O; 1.4; KH2PO4: 1.2; NaHCO3:25; Glucose: 10. The contractile force is determined using Statham UC2 cells, amplified and digitalized by means of A/D converters (DAS-1802 HC, Keithley Instruments Munich), and recorded in parallel on linear recorders. To produce a contraction, phenylephrine is added to the bath cumulatively in increasing concentration. After several control cycles, the substance to be investigated is investigated in each further passage in increasing dose in each case and the height of the contraction is compared with the height of the contraction reached in the last previous passage. From this, the concentration is calculated which is necessary in order to reduce the height of the control value by 50% (IC50). The standard administration volume is 5 μl and the proportion of DMSO in the bath solution corresponds to 0.1%.

SMILES | pIC50
Nc1nc(-c2nn(Cc3ccccc3F)c3ncccc23)ncc1-c1ccncc1 [Example 1, 2-[1-[(2-Fluorophenyl)methyl]-1H-pyrazolo[3,4-b]pyridin-3-yl]-5-(4-pyridinyl)-4-pyrimidinamine] | 6.18
Nc1nc(-c2nn(Cc3ccccc3F)c3ncccc23)nc(N)c1-c1ccncc1 [Example 4, 2-[1-(2-fluorobenzyl)-1H-pyrazolo[3,4-b]pyridine-3-yl]-5-(4-pyridinyl)-4,6-pyrimidine diamine] | 5.92
